Source: patent publication US20120226036A1, “S[…] COMPOUND” (UBE INDUSTRIES, LTD., priority 2009, published 2012)

Molecular target: T1, human EP2 receptor (Homo sapiens, UniProt P43116)
T1 construct: host or cells: HEK293
Assay: Measurement of EP2 receptor binding action ([3H]prostaglandin E2 displacement, membrane fraction of HEK293 cells)
Conditions: tested as active form (R1 = hydroxy group) of the example compound; [3H]prostaglandin E2 10 nM, 60 minutes at 30° C.
Procedure: Measurement of EP2 receptor binding action was carried out in compliance with the method of Abramovitz et al. (Biochimica et Biophysica Acta, 1483, 285 (2000)). A test compound (a compound wherein R^1 in the compound represented by the formula (I) of the present invention is a hydroxy group) dissolved in dimethylsulfoxide and [^3H]prostaglandin E2 (NET-428, available from PerkinElmer) (final concentration: 10 nM) were added to a buffer solution (10 mM MES-KOH (pH 6.0), 10 mM MgCl2, 1 mM EDTA) in which was suspended 10 μg of a membrane fraction of HEK293 cells expressing human EP2 receptor (ES-562-M, available from Euroscreen) followed by incubating for 60 minutes at 30° C. The membrane fraction was recovered on glass fiber filter paper (GF/B, available from Whatmann) using a cell harvester (M30R, Brandel), and after washing with a buffer solution (10 mM MES-KOH (pH 6.0), 10 mM MgCl2), radioactivity was measured with a liquid scintillation analyzer (2000CA, Packard).
Ki=IC50/(1+([^3H]prostaglandin E2 concentration/Kd))
The dissociation constant (Kd value) was calculated by Scatchard analysis.

T1 sequence (P43116 whole entry): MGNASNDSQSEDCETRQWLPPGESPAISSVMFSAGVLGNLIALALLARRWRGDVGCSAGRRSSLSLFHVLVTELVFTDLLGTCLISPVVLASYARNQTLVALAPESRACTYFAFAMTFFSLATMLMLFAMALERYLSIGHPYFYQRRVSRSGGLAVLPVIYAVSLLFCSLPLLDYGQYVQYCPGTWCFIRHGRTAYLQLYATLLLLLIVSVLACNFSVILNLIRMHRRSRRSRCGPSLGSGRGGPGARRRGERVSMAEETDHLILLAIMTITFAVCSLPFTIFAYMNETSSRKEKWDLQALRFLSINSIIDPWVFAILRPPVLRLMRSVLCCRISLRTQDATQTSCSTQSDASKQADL

Substance | Ki
(5-Phenylpentyl)(6-{(pyridin-2-ylsulfonyl)[4-(thiazol-2-yl)benzyl]aminomethyl}-pyridin-2-ylamino)acetate [Example 1] | 1.9 nM
(2,2,2-Trifluoroethyl)(6-{[4-(pyrazol-1-yl)benzyl](pyridin-3-ylsulfonyl)aminomethyl}-pyridin-2-ylamino)acetate [Example 11] | 13 nM
